In patent US6869960B2, “N-substituted spiropiperidine compounds as ligands for ORL-1 receptor” (Pfizer Inc., priority 2002, dated 2005) one finds IC50 data, which are given here for two compounds.

The assay addresses T1, human ORL1 receptor (Homo sapiens, UniProt P41146).
T1 construct: expressed in transfected cells; host or cells: HEK-293 cell membranes
The assay can be described thus: ORL1 receptor functional assay ([35S]GTPγS binding, nociceptin stimulated). Conditions: at 10 nM nociceptin stimulation; human ORL1 receptor transfected HEK-293 cell membranes. It is filed as biochemical. As to the method: IC50(ORL1-receptors)nM/IC50(mu-receptors)nM<1.0 ORL1 Receptor Functional Assay • The human ORL1 receptor transfected HEK-293 cell membranes are incubated with 400 pM [^35S]GTPγS, 10 or 50 nM nociceptin and various concentrations of test compounds in assay buffer (20 mM HEPES, 100 mM NaCl, 5 mM MgCl2, 1 mM EDTA, […], 1 mM DTT, pH7.4) containing 1.5 mg of wheat germ agglutinin-coated SPA beads for 60 or 90 min at 25° C. in a final volume of 200 μl. Basal binding is assessed in the absence of nociceptin and non-specific binding is defined by the addition of unlabelled […]. Membrane-bound radioactivity is detected by a Liquid Scintillation Counter. […] Analgesic Tests Tail Flick Test in Mice • The latency time to withdrawal f the tail from radiant heat stimulation is recorded before and after administration of test compounds. Cut-off time is set to 8 sec. Acetic Acid Writhing Test in Mice • Acetic acid saline solution of 0.7% (v/v) is injected intraperitoneally (0.16 ml/10 g body weight) to mice. Test compounds are administered before acetic acid injection. As soon as acetic acid injection, animals are placed in a 1 liter beaker and writhing is recorded for 15 min. Formalin Licking Test in Mice • Formalin-induced hind paw licking is initiated by a 20 micro liters subcutaneous injection of a 2% formaline solution into a hind paw of mice. […]
(Binding of GTPγS marks nucleotide exchange on a G protein.)

T1 sequence (P41146 whole entry): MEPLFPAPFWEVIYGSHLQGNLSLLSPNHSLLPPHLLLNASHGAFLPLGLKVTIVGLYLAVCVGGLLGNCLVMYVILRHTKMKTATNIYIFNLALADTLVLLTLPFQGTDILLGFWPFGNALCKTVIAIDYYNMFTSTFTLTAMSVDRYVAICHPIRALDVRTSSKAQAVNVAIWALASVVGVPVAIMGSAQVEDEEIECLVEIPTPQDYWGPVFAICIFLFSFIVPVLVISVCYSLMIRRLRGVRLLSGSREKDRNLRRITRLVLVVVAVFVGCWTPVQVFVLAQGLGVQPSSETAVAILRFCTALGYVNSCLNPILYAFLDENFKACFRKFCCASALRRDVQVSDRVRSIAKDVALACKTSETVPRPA

On to `O=C1COc2cccc3c2N1CC(CN1CCC2(CCc4ccccc42)CC1)C3` (centres unmarked) [Example 20, 6-(2,3-Dihydro-1′H-spiro[indene-1,4′piperidin]-1′-ylmethyl)-6,7-dihydro-5H-[1,4]oxazino[2,3,4-ij]quinolin-3(2H)-one], for which the IC50 is 13 nM.

`CN1CC2(CCN(CC3Cc4cccc(O)c4NC3=O)CC2)c2ccccc21` (centres unmarked) [Example 31, 8-Hydroxy-3-[(1-methyl-1,2-dihydro-1′H-spiro[indole-3,4′-piperidin]-1′-yl)methyl]-3,4-dihydroquinolin-2(1H)-one] had an IC50 of 13 nM.

As usually defined, the IC50 is the concentration at which inhibition is half-maximal. A high value points to weaker potency.
